Measurements from patent publication US20240148895A1, “ANTIBODY-DRUG CONJUGATE” (Eisai R&D Management Co., Ltd., priority 2022, published 2024).

Columns and labels:
[1] = tested on: AsPC-1/Cas9 cell line; assay: AsPC-1/Cas9 growth inhibition assay; type: cell-based, human; conditions: Homo sapiens, ASPC1, 120 h, AsPC-1/Cas9 cells, 5 days culture, CellTiter Glo 2.0; read-out: Absolute IC50—Day 5 (nM) AsPC-1 Cas9
Experimental: The human pancreatic cancer cell line AsPC-1 (ATCC Number CRL1682) was infected with Edit-R Lentiviral hCMV-Blast-Cas9 Nuclease Particle (Dharmacon, VCAS10124) in the presence of 8 μg/ml of Hexadimethrine bromide (Sigma, H9268), and after 24 hours it was exposed to 10 μg/ml of Blastcidin S (Thermo, A11139) to remove the uninfected cells, thereby establishing an AsPC-1/Cas9 cell line. The cells were maintenance cultured in a 5% CO2 incubator (37° C.) using RPMI-1640 (FujiFilm-Wako Pure Chemical Industries) containing 10% fetal bovine serum (FBS: SIGMA 173012) and penicillin/streptomycin (FujiFilm-Wako Pure Chemical Industries) (hereunder referred to simply as “culture medium”). After adding 45 μL of AsPC-1/Cas9 cell suspension prepared to 2.0×10^4 cells/mL using culture medium into each well of a 384-well plate (Greiner 781091), the cells were cultured overnight in a 5% CO2 incubator (37° C.). On the following day, 5 μL of the test substance diluted with culture medium was added to each well, and culturing was continued for 5 days in a 5% CO2 incubator (37° C.). Next, 25 μL of CellTiter Glo™ 2.0 (Promega) was added to each well, and the plate contents were mixed for 5 minutes using a plate mixer. The plate was stationed for 10 minutes at room temperature while shielded from light, and then the luminous intensity was measured with an ENVISION™ (Perkin-Elmer). The luminescence value of the wells with addition of test substance was determined as a relative value, with 100% as the luminescence value of the wells with cells but without addition of the test substance, and 0% as the luminescence value of the wells without cells. A plot of test substance concentration against luminescence value % approximated a 4-parameter logistic curve, and the test substance concentration necessary for 50% inhibition of cell growth (Absolute IC50) was calculated, and is shown in Table 4.

[2] = tested on: Human pancreatic cancer cell line HPAF-II; assay: HPAF-II growth inhibition assay (Example 317); type: cell-based; conditions: 120 h, HPAF-II cells, 5 days culture, CellTiter Glo 2.0 (Example 317, Table 11), read-out: Absolute IC50
Experimental: Cells of the human pancreatic cancer cell line HPAF-II (ATCC Number CRL-1997) were maintenance cultured in a 5% CO2 incubator (37° C.) using RPMI 1640 (FujiFilm-Wako Pure Chemical Industries) containing 10% fetal bovine serum (FBS: SIGMA 173012) and penicillin/streptomycin (FujiFilm-Wako Pure Chemical Industries) (hereunder referred to simply as “culture medium”). After adding 25 μL of HPAF-II cell suspension prepared to 3.2×10^4 cells/mL using culture medium into each well of a 384-well plate (Greiner 781091), the cells were cultured overnight in a 5% CO2 incubator (37° C.). On the following day, 25 μL of the test substance diluted with culture medium was added to each well, and culturing was continued for 5 days in a 5% CO2 incubator (37° C.). Next, 25 μL of CellTiter Glo™ 2.0 (Promega) was added to each well, and the plate contents were mixed for 5 minutes using a plate mixer. The plate was stationed for 10 minutes at room temperature while shielded from light, and then the luminous intensity was measured with an ENVISION′ (Perkin-Elmer). The luminescence value of the wells with addition of test substance was determined as a relative value, with 100% as the luminescence value of the wells with cells but without addition of the test substance and 0% as the luminescence value of the wells without cells. […]

[3] = target: HiBiT tagged BRD4-BD1 protein in HEK293/LgBiT/hPGK/HiBiT-BRD4-BD1 cells (Homo sapiens, UniProt O60885); assay: BET BD1 domain degradation assay; type: cell-based; parameters: HiBit-linker-BRD4 BD1(1-209); host or cells: HEK293 (ATCC CRL-1573) stably transduced with LgBiT and HiBiT-BRD4-BD1; conditions: concentration for 50% reduction in HiBiT-BRD4-BD1 protein level, 3 hours, read-out: Absolute DC50—3 h (nM) HEK293_HiBiT-BRD4-BD1
Text: HEK293/LgBiT/hPGK/HiBiT-BRD4-BD1 cells were established by introducing LgBiT and HiBiT-BRD4-BD1 into the human fetus renal cell line HEK293 (ATCC Number CRL-1573). LgBiT was introduced using lentivirus vector LV[Exp]-Bsd-EFS>{LgBiT}, and HiBiT-BRD4-BD1 was introduced with lentivirus vector LV[Exp]-Puro-hPGK>{HiBit-linker-BRD4 BD1(1-209)}. The vector plasmids LV[Exp]-Bsd-EFS>{LgBiT} and LV[Exp]-Puro-hPGK>{HiBit-linker-BRD4_BD1(1-209)} were constructed by VectorBuilder Co. The lentivirus was produced using a Mission Lentivirus Packaging Mix (Sigma) according to the manufacturer's protocol. Viral infection and drug selection of infected cells were carried out by the following published method (Akagi T. et. al, PNAS 2003; 100:13567-72). The cells were maintenance cultured in a 5% CO2 incubator (37° C.), using culture medium. A 45 μL portion of cell suspension of HEK293/LgBiT/hPGK/HiBiT-BRD4-BD1 cells prepared to 6.7×10^4 cells/mL using culture medium was added to each well of a collagen I-coated 384-well plate (Falcon 356667), and the cells were cultured overnight in a 5% CO2 incubator (37° C.). On the following day, 5 μL of test substance diluted with RPMI-1640 (FujiFilm-Wako Pure Chemical Industries) containing 10% fetal bovine serum (FBS: SIGMA 173012) and penicillin/streptomycin (FujiFilm-Wako Pure Chemical Industries) was added to each well, and culturing was continued for 3 hours in a 5% CO2 incubator (37° C.). The luminous intensity was measured using a Nono-Glo HiBiT Lytic Detection System (Promega), and the intracellular HiBiT tagged BRD4-BD1 protein level was calculated. After culturing, 25 μL of measuring reagent was added to each well and the plate contents were mixed for 5 minutes using a plate mixer. The plate was stationed for 10 minutes at room temperature while shielded from light, and then the luminous intensity was measured with an ENVISION′ (Perkin-Elmer). The luminescence value of the wells with addition of test substance was determined as a relative value, with 100% as the luminescence value of the wells with cells but without addition of the test substance, and 0% as the luminescence value of the wells without cells. A plot of test substance concentration against luminescence value % approximated a 4-parameter logistic curve, and the test substance concentration necessary for 50% reduction in protein level (Absolute DC50) was calculated and is shown in Table 4.

SMILES: COc1ccc(C#CCNC2(C)CCN(C3CCN(c4nc([C@@](CO)(OC5CC5)c5ccccc5)c5cc(-c6cn(C)c(=O)c7[nH]ccc67)ccc5n4)CC3)CC2)cc1N1CCC(=O)N(CNC(=O)[C@H](CC(N)=O)NC(C)=O)C1=O [Example 135, (S)-2-Acetamide-N1-((3-(5-(3-((1′-(4-((S)-1-cyclopropoxy-2-hydroxy-1-phenylethyl)-6-(6-methyl-7-oxo-6,7-dihydro-1H-pyrrolo[2,3-c]pyridin-4-yl)quinazolin-2-yl)-4-methyl-[1,4′-bipiperidin]-4-yl)amino)prop-1-yn-1-yl)-2-methoxyphenyl)-2,6-dioxotetrahydropyrimidine-1(2H)-yl)methyl)succinamide]
- IC50 [1]: 2.4 nM
- IC50 [2]: 2.9 nM
- DC50 [3]: > 100 nM
